# Measurements published in US20210338728A1, “METHODS AND COMPOSITIONS FOR THE EXPANSION AND USE OF ALLOGENEIC GAMMA/DELTA-T CELLS” (Phosphogam, Inc., priority 2018, published 2021).
# System: γδ-T cells
# Test: Ex vivo expansion of human γδ-T cells from healthy donor PBMC with C-HDMPP and IL-2, flow cytometry at day 21
# Assay type: cell-based
# Source text: Peripheral blood mononuclear cells (PBMC) were isolated from peripheral blood obtained by venipuncture from a healthy individual. Fresh blood was collected using standard aseptic technique. PBMC were isolated utilizing a standard density gradient centrifugation method. PBMC were washed in PBS, then resuspended in complete RPMI-1640 supplemented with 10% characterized fetal bovine serum and PCN+streptomycin.
# Cell cultures were initiated by seeding PBMC into tissue culture flasks to which recombinant human IL-2 was added. γδ-T cell expansion was initiated by the addition of C-HDMPP. Cultures were maintained at 37° C., 5% CO2 in incubators situated within a BSL2 containment environment. Fresh media was added as needed to keep cell concentration at approximately 1×10^6 cells/ml. Human IL-2 was added every 5 days. Cultures were maintained for 21 days at which time they were analyzed by flow cytometry. […] At 100 nM C-HDMPP the cultures were ≥96% pure γδ-T cells with viability ≥96%.
# [1] = 100 nM C-HDMPP, 21 days of culture with IL-2, flow cytometry
compound,measurement,setting,value
C/C(=C\CCP(=O)(O)OP(=O)(O)O)CO [C-HDMPP],purity of γδ-T cells in the cultures,[1],≥ 96%
same,viability of the cultures,[1],≥ 96%
same,γδ-T cell growth (expansion) versus concentration,"nanomolar concentrations, 21 days, FIG. 1",can be titrated to promote optimal γδ-T cell growth while avoiding overstimulation
